In PubChem BioAssay AID248 (DTP/NCI, 2004):
Where “and” joins values, the source holds several entries; their conditions need not be identical. Equal values may be shown once. Inconclusive results and toxic doses are left out. Cut-off read from the data, not from the text of the source: active = T/C of 150% or more; inactive = T/C below 125%.

Test system: L1210 leukemia ip in BDF1 mice, survival T/C
Test: NCI In Vivo Anticancer Drug Screen. Data for tumor model L1210 Leukemia (intraperitoneal) in B6D2F1 (BDF1) mice
Conditions: endpoint: mean survival time, higher = longer survival
Procedure, shortened: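 Mice bearing the transplanted tumor received compound or vehicle. Survival of the treated group was divided by that of the vehicle-treated control group to give the ratio.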

[1] = dose: 100.0 mg/kg/injection, schedule: Q01DX009 (ip), vehicle: saline
[2] = dose: 200.0 mg/kg/injection, schedule: Q01DX009 (ip), vehicle: saline
[3] = dose: 100.0 mg/kg/injection, schedule: Q04DX002 (ip), vehicle: Klucel (hydroxypropylcellulose) (HPC)
[4] = dose: 200.0 mg/kg/injection, schedule: Q04DX002 (ip), vehicle: Klucel (hydroxypropylcellulose) (HPC)
[5] = dose: 50.0 mg/kg/injection, schedule: Q01DX009 (ip), vehicle: saline with Tween-80
[6] = dose: 100.0 mg/kg/injection, schedule: Q01DX009 (ip), vehicle: saline with Tween-80
[7] = dose: 200.0 mg/kg/injection, schedule: Q01DX009 (ip), vehicle: saline with Tween-80
[8] = dose: 100.0 mg/kg/injection, schedule: Q04DX003 (ip), vehicle: saline with Tween-80
[9] = dose: 200.0 mg/kg/injection, schedule: Q04DX003 (ip), vehicle: saline with Tween-80
[10] = dose: 400.0 mg/kg/injection, schedule: Q04DX003 (ip), vehicle: saline with Tween-80
[11] = dose: 100.0 mg/kg/injection, schedule: Q04DX003 (ip), vehicle: Klucel (hydroxypropylcellulose) (HPC)
[12] = dose: 200.0 mg/kg/injection, schedule: Q04DX003 (ip), vehicle: Klucel (hydroxypropylcellulose) (HPC)
[13] = dose: 400.0 mg/kg/injection, schedule: Q01DX009 (ip), vehicle: saline with Tween-80
[14] = dose: 100.0 mg/kg/injection, schedule: Q01DX001 (ip), vehicle: saline
[15] = dose: 200.0 mg/kg/injection, schedule: Q01DX001 (ip), vehicle: saline
[16] = dose: 400.0 mg/kg/injection, schedule: Q01DX001 (ip), vehicle: saline

Measured: T/C

COc1c(O)c2c(c3cc(C(=O)N4CCc5c4c(O)c(OC)c4[nH]c(C(=O)N6CC7CC78C6=CC(=O)c6[nH]cc(C)c68)cc54)[nH]c13)CCN2C(N)=O (stereo not drawn)
inactive: dose: 6.25 micrograms/kg/injection, schedule: Q01DX009 (ip), vehicle: DMSO 124 % of control | dose: 12.5 micrograms/kg/injection, schedule: Q01DX009 (ip), vehicle: DMSO 111 % of control | dose: 100.0 micrograms/kg/injection, schedule: Q01DX009 (ip), vehicle: DMSO 96 % of control

O=C(O)CC(C(=O)O)=C1CCCCC1
inactive: dose: 50.0 mg/kg/injection, schedule: Q01DX009 (ip), vehicle: saline 98 % of control | [1] 98 % of control | [2] 100 % of control

COc1ccc(-n2c(=O)c(N=Nc3ccc(Cl)cc3)c(O)n(-c3ccc(I)cc3)c2=S)cc1
inactive: dose: 37.5 mg/kg/injection, schedule: Q01DX001 (ip), vehicle: Klucel (hydroxypropylcellulose) (HPC) 97 % of control | dose: 75.0 mg/kg/injection, schedule: Q01DX001 (ip), vehicle: Klucel (hydroxypropylcellulose) (HPC) 90 % of control | dose: 150.0 mg/kg/injection, schedule: Q01DX001 (ip), vehicle: Klucel (hydroxypropylcellulose) (HPC) 97 % of control

O=C(Sc1ccccc1)N(c1ccccc1)c1ccccc1
inactive: dose: 100.0 mg/kg/injection, schedule: Q04DX002 (ip), vehicle: gum acacia 117 % of control | dose: 200.0 mg/kg/injection, schedule: Q04DX002 (ip), vehicle: gum acacia 101 % of control | dose: 400.0 mg/kg/injection, schedule: Q04DX002 (ip), vehicle: gum acacia 96 % of control

SC(S)(Cc1ccccc1)Cc1ccccc1
inactive: dose: 100.0 mg/kg/injection, schedule: Q04DX002 (ip), vehicle: saline 100 % of control | dose: 200.0 mg/kg/injection, schedule: Q04DX002 (ip), vehicle: saline 100 % of control | dose: 400.0 mg/kg/injection, schedule: Q04DX002 (ip), vehicle: saline 94 % of control

Cc1cc(N(CCOS(C)(=O)=O)CCOS(C)(=O)=O)ccc1N=O
inactive: dose: 62.5 micrograms/kg/injection, schedule: Q01DX010 (ip), vehicle: saline 121 % of control

O=C(O)C1CC(Br)C(Br)CC1C(=O)Nc1ccc(Cl)c(Cl)c1 (stereo not drawn)
inactive: [3] 115 % of control | [4] 121 % of control

O=C1C(c2ccccc2)CS(=O)(=O)CC1c1ccccc1 (stereo not drawn)
inactive: dose: 50.0 mg/kg/injection, schedule: Q04DX002 (ip), vehicle: Klucel (hydroxypropylcellulose) (HPC) 101 % of control | [3] 99 % of control | [4] 96 % of control

CSC(=N)c1cccc(OCCCc2ccccc2)c1
inactive: dose: 25.0 mg/kg/injection, schedule: Q01DX009 (ip), vehicle: saline with Tween-80 92 % of control | [5] 92 % of control | [6] 101 % of control | [7] 93 % of control

CCOC(=O)C(=CNc1cccc2ccncc12)C(=O)OCC
inactive: [8] 104 % of control | [9] 95 % of control | [10] 117 % of control

O=C(c1ccccc1)c1nnc(C(=O)c2ccccc2)nn1
inactive: [11] 102 % of control | [12] 100 % of control | dose: 400.0 mg/kg/injection, schedule: Q04DX003 (ip), vehicle: Klucel (hydroxypropylcellulose) (HPC) 93 % of control

c1ccc(C2(N3CCC4(CC3)OCCO4)CCCCC2)cc1
inactive: [3] 102 % of control | [4] 105 % of control

COc1ccc(C)cc1NC(=S)NC(=O)/C=C/c1ccccc1
inactive: dose: 100.0 mg/kg/injection, schedule: Q01DX001 (ip), vehicle: saline with Tween-80 90 % of control | [6] 93 % of control and 100 % of control | dose: 100.0 mg/kg/injection, schedule: Q04DX002 (ip), vehicle: saline with Tween-80 93 % of control and 94 % of control | [8] 91 % of control | dose: 200.0 mg/kg/injection, schedule: Q01DX001 (ip), vehicle: saline with Tween-80 91 % of control | [7] 93 % of control and 88 % of control | dose: 200.0 mg/kg/injection, schedule: Q04DX002 (ip), vehicle: saline with Tween-80 94 % of control and 90 % of control | [9] 93 % of control | dose: 400.0 mg/kg/injection, schedule: Q01DX001 (ip), vehicle: saline with Tween-80 90 % of control | [13] 100 % of control and 103 % of control | dose: 400.0 mg/kg/injection, schedule: Q04DX002 (ip), vehicle: saline with Tween-80 97 % of control and 89 % of control | [10] 91 % of control

Cc1nc(Cl)c(C#N)nc1C
inactive: [5] 100 % of control | [6] 96 % of control | [8] 100 % of control | [7] 89 % of control | [9] 94 % of control

CCCCCCCCCCCCCCCCN(C)S(=O)(=O)c1ccc2sc(SC)[n+](C)c2c1 (tested in a mixture with another compound)
inactive: [6] 94 % of control | [8] 98 % of control | [7] 94 % of control | [9] 102 % of control | [13] 102 % of control | [10] 96 % of control

CC(=O)NC1CCCCC1c1ccc(C2CCCCC2NC(C)=O)cc1 (stereo not drawn)
inactive: [14] 98 % of control | [15] 98 % of control

CN(C)CCCNc1nc(-c2cc(C(F)(F)F)cc(C(F)(F)F)c2)nc(C(Cl)(Cl)Cl)n1
inactive: [3] 100 % of control | [4] 92 % of control | dose: 400.0 mg/kg/injection, schedule: Q04DX002 (ip), vehicle: Klucel (hydroxypropylcellulose) (HPC) 106 % of control

O=C(NO)c1cc(=O)[nH]o1
inactive: [8] 95 % of control | [9] 95 % of control | [10] 95 % of control

C[N-]C.C[N-]C.[Cl][Pt+2][Cl]
inactive: [14] 113 % of control | [1] 100 % of control | [15] 107 % of control | [2] 88 % of control | [16] 119 % of control

CC(C)NC(=O)c1cc(NC(=O)c2ccc(C(=O)Nc3cc(C(=O)NC(C)C)cc(C4=NCCN4)c3)cc2)cc(C2=NCCN2)c1
inactive: dose: 2.5 mg/kg/injection, schedule: Q01DX015 (ip), vehicle: water 89 % of control | dose: 5.0 mg/kg/injection, schedule: Q01DX015 (ip), vehicle: water 97 % of control | dose: 10.0 mg/kg/injection, schedule: Q01DX015 (ip), vehicle: water 92 % of control | dose: 18.75 mg/kg/injection, schedule: Q01DX015 (ip), vehicle: water 101 % of control | dose: 20.0 mg/kg/injection, schedule: Q01DX015 (ip), vehicle: water 95 % of control | dose: 37.5 mg/kg/injection, schedule: Q01DX015 (ip), vehicle: water 96 % of control

CCCCCCC1(C)CCC(=O)O1 (stereo not drawn)
inactive: [14] 94 % of control | [15] 94 % of control | [16] 100 % of control

Cc1c(CO)[nH]c(=S)[nH]c1=O
inactive: dose: 50.0 mg/kg/injection, schedule: Q01DX001 (ip), vehicle: Klucel (hydroxypropylcellulose) (HPC) 103 % of control | dose: 50.0 mg/kg/injection, schedule: Q04DX003 (ip), vehicle: Klucel (hydroxypropylcellulose) (HPC) 100 % of control | dose: 100.0 mg/kg/injection, schedule: Q01DX001 (ip), vehicle: Klucel (hydroxypropylcellulose) (HPC) 95 % of control | [11] 92 % of control | dose: 200.0 mg/kg/injection, schedule: Q01DX001 (ip), vehicle: Klucel (hydroxypropylcellulose) (HPC) 97 % of control | [12] 89 % of control

CN(N)C(=N)N
inactive: [1] 102 % of control | [2] 101 % of control | dose: 400.0 mg/kg/injection, schedule: Q01DX009 (ip), vehicle: saline 96 % of control

Nc1n[nH]c2cc(=O)[nH]c(O)c12
inactive: dose: 75.0 mg/kg/injection, schedule: Q01DX001 (ip), vehicle: saline 98 % of control | dose: 150.0 mg/kg/injection, schedule: Q01DX001 (ip), vehicle: saline 93 % of control | dose: 300.0 mg/kg/injection, schedule: Q01DX001 (ip), vehicle: saline 94 % of control

CCN(CC)C(=O)Nc1ccc(O)c(C(=O)O)c1
inactive: [14] 98 % of control | [15] 95 % of control | [16] 96 % of control

O=c1cc[n]2c(n1)[O][Hg]2
inactive: dose: 5.0 mg/kg/injection, schedule: Q01DX001 (ip), vehicle: carboxymethylcellulose (CMC) 98 % of control | dose: 10.0 mg/kg/injection, schedule: Q01DX001 (ip), vehicle: carboxymethylcellulose (CMC) 98 % of control

C/C(=N\N(Cc1ccc(CN(/N=C(\C)c2ccccc2)c2ccccc2)cc1)c1ccccc1)c1ccccc1
inactive: dose: 100.0 mg/kg/injection, schedule: Q01DX001 (ip), vehicle: other 86 % of control | dose: 200.0 mg/kg/injection, schedule: Q01DX001 (ip), vehicle: other 89 % of control | dose: 400.0 mg/kg/injection, schedule: Q01DX001 (ip), vehicle: other 89 % of control
